Experimental data taken from patent publication US8153687B2, “Gallium complexes with polyalcohols and methods of use” (priority 2009, dated 2012).

Test system: Pseudomonas aeruginosa
Experiment: Topical treatment of a recalcitrant Pseudomonas aeruginosa infected diabetic foot ulcer (case)
Assay type: in vivo
Settings: severe diabetic foot ulcer with biofilm formation

| Compound | response of the infection to treatment (oral treatment) | response of the infection to treatment (topical treatment) |
| --- | --- | --- |
| O=C(O)c1cn(C2CC2)c2cc(N3CCNCC3)c(F)cc2c1=O [ciprofloxacin] | does not respond | does not respond |
| gentamicin | – | does not respond |
| Oc1cc(Cl)ccc1Oc1ccc(Cl)cc1Cl [triclosan] | – | does not respond |
